Tests used:
Assay type in all cases: cell membranes, Membrane
[1] = target: Adrenergic receptor alpha; assay: Inhibition of [3H]WB-4101 binding to alpha adrenergic receptor from rat cerebral cortical membranes
Dopamine receptor = assay: Inhibition of [3H]spiroperidol binding to dopamine receptor from rat striatum membranes
Adrenergic receptor beta = Adrenergic receptor beta (Rattus norvegicus, UniProt P18090+P10608+P26255); assay: Inhibition of [3H]dihydroalprenolol binding to Beta adrenergic receptor from rat cerebral cortical membranes

Compound	Ki [1]	Ki (Dopamine receptor)	Ki (Adrenergic receptor beta)
Oc1ccc(C[C@H]2NCCc3cc(O)c(O)cc32)cc1O	25 µM	35 µM	30 µM
O=C(O)C1(Cc2ccc(O)c(O)c2)NCCc2cc(O)c(O)cc21 (configuration not stated)	> 100 µM	> 100 µM	> 100 µM
COc1cc(C[C@@H]2NCCc3cc(O)c(O)cc32)cc(OC)c1OC [TRETOQUINOL]	10 µM	5 µM	–
COc1ccc(C[C@H]2NCCc3cc(OC)c(O)cc32)cc1O	10 µM	30 µM	30 µM
Oc1cc(Br)c(CC2NCCc3cc(O)c(O)cc32)cc1O (configuration not stated)	0.5 µM	1.5 µM	40 µM
Oc1ccc(CC2NCCc3cc(O)c(O)cc32)cc1O (configuration not stated)	40 µM	10 µM	0.3 µM
Oc1ccc(C[C@@H]2NCCc3cc(O)c(O)cc32)cc1O	5 µM	2 µM	0.3 µM
COc1cc(CC2(C(=O)O)NCCc3cc(O)c(O)cc32)ccc1O (configuration not stated)	> 100 µM	> 100 µM	> 100 µM
COc1ccc(CC2NCCc3cc(OC)c(O)cc32)cc1O (configuration not stated)	7.5 µM	3.8 µM	4 µM
COc1cc(CC2NCCc3cc(O)c(O)cc32)ccc1O (configuration not stated)	4.5 µM	5 µM	0.5 µM
COc1ccc(C[C@@H]2NCCc3cc(OC)c(O)cc32)cc1O	5 µM	1.5 µM	1.3 µM
COc1cc2c(cc1O)C(Cc1ccc(O)c(O)c1)NCC2 (configuration not stated)	7.5 µM	4.5 µM	0.2 µM
COc1ccc(CC2NCCc3cc(OC)c(OC)cc32)cc1OC (configuration not stated) [TETRAHYDROPAPAVERINE]	10 µM	–	1 µM

From ChEMBL document CHEMBL1121453, “Mammalian alkaloids. 8. Synthesis and biological effects of tetrahydropapaveroline related 1-benzyltetrahydroisoquinolines” (J Med Chem, 1980)
